Molecular target: T1, Full-length, GST-tagged, human CaMKIIδ (Homo sapiens, UniProt Q13557)
T1 construct: Full-Length, Glutathione-S-Transferase(GST)-Tagged, Human CaMKIIδ was purchased from Carna Biosciences; purchased Carna Biosciences 02-111
Assay: CaMKIIδ binding assay (TR-FRET with BODIPY-labeled probe ligand)
In short: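 TR-FRET probe-displacement binding: 0.5 nM GST-CaMKIIδ with 10 μg/mL calmodulin, 1 mM CaCl2, 0.21 nM Tb-anti-GST Ab and 300 nM BODIPY probe in HEPES pH 7.6 buffer. Eight-point 4-fold dilutions, 1 hr at room temperature. IC50 from logistic fit; 100% inhibition defined by 3 μM parent compound.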

[1] = Table 2, activity class for CaMKIIδ
[2] = CaMKIIδ binding assay, results of Table 2
[3] = CaMKIIδ binding assay, activity class per Table 2

T1 sequence (Q13557 1-478 isoform Q13557-12): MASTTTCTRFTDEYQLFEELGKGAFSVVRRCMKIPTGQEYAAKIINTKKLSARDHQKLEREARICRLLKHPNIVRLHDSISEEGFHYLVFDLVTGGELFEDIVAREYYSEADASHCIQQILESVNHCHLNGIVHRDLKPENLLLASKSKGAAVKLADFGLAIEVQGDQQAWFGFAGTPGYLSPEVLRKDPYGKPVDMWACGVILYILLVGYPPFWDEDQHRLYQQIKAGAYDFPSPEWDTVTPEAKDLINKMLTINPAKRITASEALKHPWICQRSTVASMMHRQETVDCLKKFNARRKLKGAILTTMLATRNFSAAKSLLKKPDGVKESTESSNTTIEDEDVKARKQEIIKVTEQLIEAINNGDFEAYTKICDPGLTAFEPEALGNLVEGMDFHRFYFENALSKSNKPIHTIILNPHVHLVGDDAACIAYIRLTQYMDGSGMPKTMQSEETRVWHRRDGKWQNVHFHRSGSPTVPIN

Row | Structure (SMILES) | IC50 [1] [µM] | further results
1 | C[C@@H](Cn1cnnn1)Oc1cc(-c2cnc(Nc3cn(CC(F)F)nc3OCC(F)(F)F)nc2)ccc1Cl [Example 760, (S)-5-(3-((1-(1H-tetrazol-1-yl)propan-2-yl)oxy)-4-chlorophenyl)-N-(1-(2,2-difluoroethyl)-3-(2,2,2-trifluoroethoxy)-1H-pyrazol-4-yl)pyrimidin-2-amine] |  | IC50 (Table 2, CaMKIIδ binding assay, activity given as class A/B/C): < 0.01 µM
2 | C[C@@H](Cn1cnnn1)Oc1cc(-c2cnc(Nc3cn(C4CCCN(C(=O)OC(C)(C)C)C4)nc3C(F)(F)F)nc2)ccc1Cl (stereo partly drawn) [Example 599, tert-butyl 3-(4-((5-(3-(((S)-1-(1H-tetrazol-1-yl)propan-2-yl)oxy)-4-chlorophenyl)pyrimidin-2-yl)amino)-3-(trifluoromethyl)-1H-pyrazol-1-yl)piperidine-1-carboxylate] | ≥ 0.1 | 
3 | COc1cc2c(cc1Nc1ncc(-c3ccc(Cl)c(O[C@@H](C)Cn4cnnn4)c3)cn1)CCN(CC(F)(F)F)C2 [Example 490, (S)-N-(5-(3-((1-(1H-tetrazol-1-yl)propan-2-yl)oxy)-4-chlorophenyl)pyrimidin-2-yl)-7-methoxy-2-(2,2,2-trifluoroethyl)-1,2,3,4-tetrahydroisoquinolin-6-amine] |  | IC50 [2]: 0.01 to 0.1 µM
4 | COc1cc(N2CCN(C3CCOC3)CC2)ncc1Nc1ncc(-c2ccc(Cl)c(O[C@@H](C)Cn3cnnn3)c2)cn1 (stereo partly drawn) [Example 651, 5-(3-(((S)-1-(1H-tetrazol-1-yl)propan-2-yl)oxy)-4-chlorophenyl)-N-(4-methoxy-6-(4-(tetrahydrofuran-3-yl)piperazin-1-yl)pyridin-3-yl)pyrimidin-2-amine] | 0.01 to 0.1 | 
5 | COc1cc(N2CCOC(CO)C2)ccc1Nc1ncc(-c2ccc(Cl)c(O[C@@H](C)Cn3cnnn3)c2)cn1 (stereo partly drawn) [Example 594, (4-(4-((5-(3-(((S)-1-(1H-tetrazol-1-yl)propan-2-yl)oxy)-4-chlorophenyl)pyrimidin-2-yl)amino)-3-methoxyphenyl)morpholin-2-yl)methanol] | 0.01 to 0.1 | 
6 | C[C@@H](Cn1cnnn1)Oc1cc(-c2cnc(Nc3cn(C4CC5(C4)CN(C(=O)OC(C)(C)C)C5)nc3C(F)(F)F)nc2)ccc1Cl [Example 919, tert-butyl (S)-6-(4-((5-(3-((1-(1H-tetrazol-1-yl)propan-2-yl)oxy)-4-chlorophenyl)pyrimidin-2-yl)amino)-3-(trifluoromethyl)-1H-pyrazol-1-yl)-2-azaspiro[3.3]heptane-2-carboxylate] |  | IC50 [3]: ≥ 0.1 µM
7 | C[C@@H](Cn1cnnn1)Oc1cc(-c2cnc(Nc3cn(-c4cn[nH]c4)nc3C(F)(F)F)nc2)ccc1Cl [Example 890, (S)-N-(5-(3-((1-(1H-tetrazol-1-yl)propan-2-yl)oxy)-4-chlorophenyl)pyrimidin-2-yl)-3-(trifluoromethyl)-1′H-[1,4′-bipyrazol]-4-amine] |  | IC50 [3]: 0.01 to 0.1 µM
8 | C[C@@H](Cn1cnnn1)Oc1cc(-c2cnc(Nc3cn(CC4CCNC4)nc3C(F)(F)F)nc2)ccc1Cl (stereo partly drawn) [Example 572, 5-(3-(((S)-1-(1H-tetrazol-1-yl)propan-2-yl)oxy)-4-chlorophenyl)-N-(1-(pyrrolidin-3-ylmethyl)-3-(trifluoromethyl)-1H-pyrazol-4-yl)pyrimidin-2-amine] |  | IC50 [2]: < 0.01 µM
9 | COc1cc(N2CCNC[C@@H]2C)ccc1Nc1ncc(-c2ccc(Cl)c(O[C@@H](C)Cn3cnnn3)c2)cn1 [Example 649, 5-(3-(((S)-1-(1H-tetrazol-1-yl)propan-2-yl)oxy)-4-chlorophenyl)-N-(2-methoxy-4-((S)-2-methylpiperazin-1-yl)phenyl)pyrimidin-2-amine] | < 0.01 | 
10 | C[C@@H](Cn1cnnn1)Oc1cc(-c2cnc(Nc3cn(Cc4ccncc4)nc3C(F)(F)F)nc2)ccc1Cl [Example 709, (S)-5-(3-((1-(1H-tetrazol-1-yl)propan-2-yl)oxy)-4-chlorophenyl)-N-(1-(pyridin-4-ylmethyl)-3-(trifluoromethyl)-1H-pyrazol-4-yl)pyrimidin-2-amine] | 0.01 to 0.1 | 

— patent US10543212B2, “Substituted amines for treating cardiac diseases” (Cardurion Pharmaceuticals, LLC, priority 2017, dated 2020)
